Assay results published in US11173173B2, “Methods for treating chemoresistant cancer-initiating cells” (UNIVERSITY OF CONNECTICUT, priority 2015, dated 2021).

Assays:
pS^552-β-catenin = assay: Western analysis of pS552-β-catenin in compound-treated TOP and FOP cells; conditions: TOP and FOP cells treated 48 hours at EC90, EC50, EC25
Description: (§1) Cytotoxicity profiles (CTG) of compounds were also determined. […] TOP and FOP cells were treated with candidate compounds at EC90, EC50 and EC25 derived from (b) for 48 hours, washed and flash frozen for Western analysis (c).
(§2) Activity of compounds was tested against HEK-TOP cells vs. HEK FOP cells for inhibition of luciferase activity. The cytotoxicity profiles of the compounds were also tested using Cell Titer Glo assay (Promega) on HEK-TOP cell lines. […] The HEK cells and HEK Top cells were plated at 300,000 cells/well in 6 well plates and were treated in duplicate with EC90, EC50 and EC25 concentrations of the 25 repurchased compounds as well as three controls. After 48 h of exposure, the cells were washed with PBS and flash frozen. The frozen cells were lysed directly in plates for Western analysis.

pan β-catenin = assay: Western analysis of pan β-catenin in compound-treated TOP and FOP cells; conditions: TOP and FOP cells treated 48 hours at EC90, EC50, EC25
Description: as §1, §2

[1] = Cardiotoxicity based on cardiac troponin I level and histology; format: in vivo; conditions: 1 mg/kg (8 doses) and high single dose
Description: Data are presented as mean±SD (n=5) *P<0.05, **P<0.01. c provides cardiac Troponin I level after administration of free doxorubicin (DOX) and doxorubicin nanoparticles (DOX-NPs).
The doxorubicin nanoparticles have an average particle diameter of 138 nm. […] The release of Dox in PBS was steady at approximately 2% per day, with 24% released in 12 days. […] Cardiotoxicity was tested based on cardiac troponin I level and histology.

[2] = system: tumorigenic cells (functional LSCs) in BM of treated leukemic mice; assay: Tumorigenic assay: BM of treated leukemic mice transplanted into NSG recipients; format: in vivo, mouse
Description: At 12 days post-treatment, BM was harvested from treated mice and transplanted into sub-lethally irradiated NSG recipients. a, Treatment schematic and Kaplan-Meier curves of recipient mice. b, Recipients of BM from [Low]DXR only treated leukemic mice were analyzed by flow cytometry at 6 months post-transplant. […] Dashed line indicates day of final [Low]nanoDXR treatment. f, Surviving [Low]nanoDXR treated mice were analyzed by flow cytometry at 230 days post-treatment.
At 12 days post-treatment, BM was harvested from treated mice and transplanted into sub-lethally irradiated NSG recipients. a, Treatment schematic and Kaplan-Meier curves of recipient mice.
Tumorigenic assays were performed by transplanting 0.5, 1.5, or 4.5×10^4 bone marrow cells from treated mice at 12 days post-treatment into 3.25 Gy irradiated NSG recipient mice. 10 recipients were used for each dose from each group. One male and one female donor was used for each group. Leukemia was assessed in mice euthanized due to poor health by analyzing CD45^Hi CD3^+ cell frequency. Mice having >20% Blasts in the bone marrow were considered leukemic.
A cohort of mice was established as in FIG. 3a. One week after completion of treatment with vehicle, chemotherapy, [Low]DXR, or chemotherapy+[Low]DXR, we transplanted BM from treated mice into irradiated NSG recipients to test for tumorigenic cells.

[3] = target: T1, EGFP-AKT and mCherry-β-catenin (Mus musculus, UniProt Q02248); assay: FRET assay (acceptor photobleaching) of Akt/β-catenin interaction in 293T cells; format: cell-based; conditions: 25, 50, 100, 200 nM; vehicle 2.24%
T1 construct: host or cells: 293T cells
T1 sequence (Q02248 1-781): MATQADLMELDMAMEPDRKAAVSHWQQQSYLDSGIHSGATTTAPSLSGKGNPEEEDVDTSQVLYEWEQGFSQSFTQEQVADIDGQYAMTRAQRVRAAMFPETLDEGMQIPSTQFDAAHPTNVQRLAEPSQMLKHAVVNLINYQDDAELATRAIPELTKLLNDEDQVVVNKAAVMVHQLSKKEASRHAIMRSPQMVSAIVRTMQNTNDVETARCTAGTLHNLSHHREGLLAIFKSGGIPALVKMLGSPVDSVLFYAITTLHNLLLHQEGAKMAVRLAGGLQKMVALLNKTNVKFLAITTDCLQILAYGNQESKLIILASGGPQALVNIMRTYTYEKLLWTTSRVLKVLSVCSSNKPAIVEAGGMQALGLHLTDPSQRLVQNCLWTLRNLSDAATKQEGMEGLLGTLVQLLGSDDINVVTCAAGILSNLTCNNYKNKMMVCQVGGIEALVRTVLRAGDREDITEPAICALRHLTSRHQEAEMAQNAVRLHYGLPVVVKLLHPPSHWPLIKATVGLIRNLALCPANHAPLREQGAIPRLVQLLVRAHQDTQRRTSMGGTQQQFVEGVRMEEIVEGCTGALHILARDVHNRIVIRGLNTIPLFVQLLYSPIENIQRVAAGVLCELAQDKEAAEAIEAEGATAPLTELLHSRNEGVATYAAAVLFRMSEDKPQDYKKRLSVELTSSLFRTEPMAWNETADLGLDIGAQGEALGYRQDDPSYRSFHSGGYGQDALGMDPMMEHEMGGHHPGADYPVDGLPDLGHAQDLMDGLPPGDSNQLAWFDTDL
Description: FRET measurement was performed by using the acceptor photobleaching method. […] A Perkin-Elmer Ultraview spinning disc system with a CSU-X1 Yokogawa disc was used for imaging. A 40X 1.2 NA Plan-apochromatic objective was used, and emission was collected onto a C9100 Hamamatsu Photonics EM-CCD. EGFP was excited with a 488 nm laser, and emission was collected through a 500-555 nm band pass filter. mCherry was illuminated, and photobleached, with a 561 nm laser. Emission of mCherry was collected with a 580-650 nm band pass filter. 6 images of EGFP were acquired before and 8 images after bleaching of the mCherry with intense 561 nm light. After subtraction of camera background, the average intensity of EGFP in a region of interest spanning the bleached cell was determined in the 4 images before acceptor bleach (I1), or the 4 images after acceptor bleach (I2). FRET efficiency is reported as 1−(I1/I2). Calculations were based on >500 cell images.
To test whether DXR could block interaction between Akt and β-catenin, Fluorescence Resonance Energy Transfer (FRET) analysis using EGFP-AKT and mCherry-β-catenin transfected cells was performed.

[4] = system: blast cells, LSCs and HSPCs sorted from treated leukemic mice; assay: Limiting-dilution transplants into NSG recipients, CRU frequency (ELDA); format: in vivo, mouse; conditions: for Engrafted: HSPCs
Description: Leukemic mice were treated with vehicle, chemotherapy, [Low]DXR or chemotherapy+[Low]DXR as described in FIG. 3a. a-c, At 10 days post-treatment, BM was analyzed by flow cytometry to determine frequency of blast cells (a), LSCs (b) and HSPCs (c). Shown are representative plots. d, Average frequency±SD of each population from a-c (n≥6 per group). e, Limiting-dilution assays to determine CRU frequency were performed on blast cells and LSCs sorted from chemotherapy treated leukemic mice and on HSPCs sorted from [Low]DXR treated mice. Engraftment 1% blast cells) was determined in NSG recipients at 10-12 weeks post-transplant.
Limiting-dilution and tumorigenic assays were performed by establishing leukemic mice as described above and treating as indicated at 8 weeks post-induction. For limiting-dilution transplants, mice were treated with chemotherapy or [Low]DXR and, at 10 days post-treatment (based on first treatment), CD45^Hi CD^3+ c-Kit^− blast cells or Lin^− CD^3+ c-Kit^Mid LSCs were sorted from chemotherapy treated mice and Lin^− Sca-1^+ c-Kit^+ HSPCs were sorted from [Low]DXR treated mice. The indicated numbers of these populations were transplanted into 3.25 Gy irradiated NOD. Cg-Prkdc^scid II2rg^tm1WjI/SzJ (NSG) recipient mice. Recipient bone marrow was analyzed by flow cytometry at 10-12 weeks post-transplant and those with ≥1% CD45^Hi blast cells in bone marrow were considered engrafted. CRU frequency was determined using ELDA analysis.

Q: What does the source list for `COc1cccc2c1C(=O)c1c(O)c3c(c(O)c1C2=O)C[C@@](O)(C(=O)CO)C[C@@H]3O[C@H]1C[C@H](N)[C@H](O)[C@H](C)O1` [DXR, doxorubicin]?
A: inhibition of pS552-β-catenin (Western) (pS^552-β-catenin): effectively inhibited pS^552-β-catenin; effect on pan β-catenin (Western) (pan β-catenin): only minimal effect on pan β-catenin; cardiotoxicity (cardiac troponin I level and histology) [1]: showed cardiotoxicity; blast cells, LSCs and HSPCs in surviving recipients ([2]; 6 months post-transplant): only trace levels of blast cells and LSCs, and HSPCs were within normal parameters; recipients remaining healthy nearly 6 months post-transplant ([2]; recipients of BM from treated leukemic mice): 29/30; FRET efficiency between EGFP-AKT and mCherry-β-catenin [3]: decreased with increasing concentrations of DXR; engraftment behaviour of HSPCs sorted from treated mice ([4]; 10-12 weeks post-transplant): only engrafted at low levels without developing into leukemia; Engrafted ([4]; dose 50, 5 tested): 0; Engrafted ([4]; dose 150, 6 tested): 1; Engrafted ([4]; dose 450, 5 tested): 1
